Measurements taken from PMC7445428, “Simplified dolutegravir dosing for children with HIV weighing 20 kg or more: pharmacokinetic and safety substudies of the multicentre, randomised ODYSSEY trial” (The Lancet. HIV, 2020).
Where two headings read alike, the source gives them in different places. Marks after values point to notes of the source that are not given here.

Experiments:
plasma HIV-1 RNA = tested on: plasma HIV-1 RNA; parameters: method as in PMID 22018760; conditions: adults, 96 weeks, cited from earlier work
[1] = Safety follow-up (serious, grade 3 or 4 adverse events) over 24 weeks in children of the pharmacokinetic substudies; format: in vivo, human
Description: Children enrolled in the pharmacokinetic substudies attended study visits following the main ODYSSEY trial protocol (visits every 12 weeks after week 4 from enrolment). Participants whose dose was increased to 30 mg dispersible tablets or the 50 mg film-coated tablet had additional safety visits at weeks 2, 4, and 12 after dose adaptation. At each visit, we did a clinical assessment, including haematology and biochemistry safety parameters. We ascertained serious adverse events (defined according to International Conference on Harmonisation Guideline for Good Clinical Practice), grade 3 and 4 clinical and laboratory events, and events resulting in modification of ART (any grade).
All children consenting to inclusion in a pharmacokinetic substudy contributed safety data from the start of each pharmacokinetic dose for 24 weeks or to last follow-up visit, whichever was earlier; no participant commenced a second pharmacokinetic dose before completing 24 weeks on the first pharmacokinetic dose with the exception of children weighing 25 kg to less than 40 kg crossing over from the doses approved by the SRAs at the time of the study the 50 mg film-coated tablet, with which follow-up could be shorter. As part of the ODYSSEY trial, an independent endpoint review committee who were masked to trial groups (third drug of ART regimen) reviewed all reported adverse events. We did descriptive analysis reporting follow-up and adverse events by dose and weight band in STATA (version 15.0). An independent data monitoring committee reviewed conduct, pharmacokinetic, and safety data from these substudies. The ODYSSEY trial is registered with ClinicalTrials.gov, NCT02259127.

[2] = parameters: method as in earlier work; conditions: cited from earlier work
[3] = parameters: species or system human
Description: The pharmacokinetic substudy for children weighing 25 kg to less than 40 kg was a within-subject, two-period, fixed-order, pharmacokinetic study with paediatric dolutegravir doses approved by the SRAs at the time of the study used in the first period and a higher (adult) dose of 50 mg as film-coated tablet in the second period. A child first completed 24-h intensive pharmacokinetic sampling after at least 1 week of receiving 25 mg film-coated tablets if they were in the 25 kg to less than 30 kg weight band or 35 mg (one 10 mg and one 25 mg film-coated tablet) if they were in the 30 to less than 40 kg weight band. The second 24-h pharmacokinetic profile was taken at least 1 week after the switch to a daily 50 mg film-coated tablet.
In a parallel pharmacokinetic substudy, children weighing 20 kg to less than 25 kg had 24-h intensive pharmacokinetic profiling on the once-daily dose of dolutegravir 25 mg film-coated tablet (part one). After review of the results, we did a subsequent substudy (part two) in children weighing 20 to less than 25 kg, investigating higher dolutegravir doses to achieve better exposures. On the basis of results of part one and to simplify dosing and future access to formulations, we studied the 50 mg adult film-coated tablet. Because we were concurrently investigating dispersible dolutegravir tablets in children weighing less than 20 kg (not reported here), we also studied a 30 mg dose given as six 5 mg dispersible tablets, which is bioequivalent to a 50 mg film-coated tablet,[16] as an option for children unable to swallow adult tablets. Dolutegravir 50 mg film-coated tablet or 30 mg dispersible tablet formulations were allocated by site. This substudy primarily enrolled children who had not participated in part one because children initially recruited in this weight band had gained weight and were no longer in the weight band.
To achieve steady-state, children attended their pharmacokinetic study visit day at least 7 days after starting on the investigated dolutegravir dose. We ascertained medication adherence during the last 3 days before the day of pharmacokinetic assessment to ensure that no doses had been missed. To construct a dolutegravir plasma concentration-time profile, blood samples of 2 mL were taken at baseline and 1, 2, 3, 4, 6, and 24 h after observed dolutegravir intake with 100 mL of water. To conform with adult comparator studies, participants fasted at least 3 h before dolutegravir intake, although an overnight fast was preferred. Dispersible tablets were dispersed in a small amount of water and immediately taken, followed by an additional intake of water up to a volume of 100 mL. We allowed no medications, other than nucleoside reverse transcriptase inhibitors, within 2 h after dolutegravir intake. Children fasted 2 h after dolutegravir intake before having a light breakfast (containing approximately 250 calories). During pharmacokinetic assessment days all food was provided at set times.
We refrigerated blood samples within 10 min and centrifuged them within 24 h of collection. Plasma was separated and stored at −80°C until shipping to the laboratory of the Department of Pharmacy, Radboudumc, Nijmegen, Netherlands for quantification with a validated liquid chromatography tandem mass spectrometry bioanalytical quantification method (lower limit of quantification of 0·01 mg/L).[18]
We included all participants consenting to inclusion in the pharmacokinetic substudies in the safety analyses. For the pharmacokinetic analyses, we considered haemolysed samples non-evaluable and excluded pharmacokinetic profiles if treatment non-adherence was likely (predefined when a predose concentration [C0] was >15 times below the concentration 24 h after observed drug intake (trough concentration [Ctrough]), if protocol violations had occurred, or if concomitant medications known to affect dolutegravir drug concentrations had been used. […]

[4] = parameters: method as in PMID 22183173; conditions: adult healthy volunteers, cited from earlier work
[5] = 20 to <25 kg, 9 patients (50 mg) FCT
[6] = 20 to <25 kg, 10 patients (30 mg) DT
[7] = 20 to <25 kg, 17 patients (25 mg) FCT
[8] = 25 to <30 kg, 17 patients (25 mg) FCT
[9] = 25 to <30 kg, 17 patients (50 mg) FCT
[10] = 30 to <40 kg, 11 patients (35 mg) FCT
[11] = 30 to <40 kg, 11 patients (50 mg) FCT

In the case of C[C@@H]1CCO[C@H]2Cn3cc(C(=O)NCc4ccc(F)cc4F)c(=O)c(O)c3C(=O)N12 [dolutegravir], the “Sustained virological response rate (plasma HIV-1 RNA <50 copies per mL)” value (plasma HIV-1 RNA; 10 mg film-coated tablet once daily) is listed as 79%, the “Sustained virological response rate (plasma HIV-1 RNA <50 copies per mL)” value (plasma HIV-1 RNA; 50 mg film-coated tablet once daily) is listed as 88% and the “Total adverse events (grade 3 or 4 or serious adverse event)” value (“Total adverse events” below) ([1]; 17 patients (25 mg) FCT) is listed as 3 (18%) n (%). For the same molecule, the “Anaemia (grade 3 or 4 asymptomatic laboratory event)” value (“Anaemia” below) [1, 5] was 0 n (%), the “Cryptococcal meningitis (grade 3 or 4 clinical adverse event)” value (“Cryptococcal meningitis” for short) [1, 5] was 0 n (%) and the “Grade 3 or 4 asymptomatic laboratory events” value [1, 5] was 0 n (%). For the same molecule, the “Grade 3 or 4 clinical adverse events” value [1, 5] was 0 n (%), the “Neutropenia (grade 3 or 4 asymptomatic laboratory event)” value (“Neutropenia” below) [1, 5] was 0 n (%) and the “Thrombocytopenia and raised transaminases (grade 3 or 4 asymptomatic laboratory event)” value [1, 5] was 0 n (%). For the same molecule, the “Anaemia” value [1, 6] was 0 n (%), the “Cryptococcal meningitis” value [1, 6] was 0 n (%) and the “Grade 3 or 4 asymptomatic laboratory events” value [1, 6] was 0 n (%). For the same molecule, the “Grade 3 or 4 clinical adverse events” value [1, 6] was 0 n (%), the “Neutropenia” value [1, 6] was 0 n (%) and the “Thrombocytopenia and raised transaminases (grade 3 or 4 asymptomatic laboratory event)” value [1, 6] was 0 n (%). For the same molecule, the “Anaemia” value [1, 7] was 0 n (%), the “Cryptococcal meningitis” value [1, 7] was 0 n (%) and the “Grade 3 or 4 asymptomatic laboratory events” value [1, 7] was 3 (18%) n (%). For the same molecule, the “Grade 3 or 4 clinical adverse events” value [1, 7] was 0 n (%), the “Anaemia” value [1, 8] was 0 n (%) and the “Cryptococcal meningitis” value [1, 8] was 0 n (%). The “Grade 3 or 4 asymptomatic laboratory events” value [1, 8] was 0 n (%), the “Grade 3 or 4 clinical adverse events” value [1, 8] was 0 n (%) and the “Neutropenia” value [1, 8] was 0 n (%). For the same molecule, the “Thrombocytopenia and raised transaminases (grade 3 or 4 asymptomatic laboratory event)” value [1, 8] was 0 n (%), the “Anaemia” value [1, 9] was 0 n (%) and the “Cryptococcal meningitis” value [1, 9] was 0 n (%). For the same molecule, the “Grade 3 or 4 asymptomatic laboratory events” value [1, 9] was 1 (6%) n (%), the “Grade 3 or 4 clinical adverse events” value [1, 9] was 0 n (%) and the “Neutropenia” value [1, 9] was 1 (6%) n (%). The “Thrombocytopenia and raised transaminases (grade 3 or 4 asymptomatic laboratory event)” value [1, 9] was 0 n (%), the “Total adverse events” value [1, 9] was 1 (6%) n (%) and the Reportable adverse events ([1]; 28 children weighing 25 kg or more on 50 mg film-coated tablets, follow-up 24 weeks) was “three”. The “Anaemia” value [1, 10] was 0 n (%), the “Cryptococcal meningitis” value [1, 10] was 0 n (%) and the “Grade 3 or 4 asymptomatic laboratory events” value [1, 10] was 0 n (%). For the same molecule, the “Grade 3 or 4 clinical adverse events” value [1, 10] was 0 n (%), the “Neutropenia” value [1, 10] was 0 n (%) and the “Thrombocytopenia and raised transaminases (grade 3 or 4 asymptomatic laboratory event)” value [1, 10] was 0 n (%). The “Anaemia” value [1, 11] was 1 (9%) n (%), the “Grade 3 or 4 asymptomatic laboratory events” value [1, 11] was 1 (9%) n (%) and the “Grade 3 or 4 clinical adverse events” value [1, 11] was 1 (9%) n (%). For the same molecule, the “Neutropenia” value [1, 11] was 0 n (%), the “Thrombocytopenia and raised transaminases (grade 3 or 4 asymptomatic laboratory event)” value [1, 11] was 0 n (%) and the “Total adverse events” value [1, 11] was 2 (18%) n (%). For the same molecule, the “Cryptococcal meningitis” value ([1]; 30 to <40 kg, 11 patients (50 mg) FCT, serious adverse event) was 1 (9%) ^** n (%), the “Adverse events considered related to dolutegravir” value ([1]; 47 children on 50 mg film-coated tablet or 30 mg dispersible tablets, reporting clinicians and endpoint review committee) was “none” and the “Bioequivalence of 30 mg dose as six 5 mg dispersible tablets to 50 mg film-coated tablet” value [2] was “bioequivalent”. For the same molecule, the “Children with individual Ctrough below 0·32 mg/L (in vivo EC90)” value ([3]; human, 24 h) was 12 (30%) n (%), the “AUC0-24h / Dose geometric mean ratio (90% CI), 50 mg FCT vs 25/35 mg FCT” value ([3]; human, in vivo) was 0∙91 (0∙85-0∙97) and the “Cmax / Dose geometric mean ratio (90% CI), 50 mg FCT vs 25/35 mg FCT” value ([3]; human, in vivo) was 0∙89 (0∙82-0∙96). The “GM Cmax higher than in adults on 50 mg twice-daily” value ([3]; human, in vivo) was 32%, the “GM Cmax higher than in adults on 50 mg twice-daily” value ([3]; human, in vivo, 50 mg) was 17% and the “Ctrough / Dose geometric mean ratio (90% CI), 50 mg FCT vs 25/35 mg FCT” value ([3]; human, in vivo, 24 h) was 0∙98 (0∙87-1∙10). For the same molecule, the “Ctrough geometric mean ratio (90% CI), 50 mg FCT vs 30 mg DT” value ([3]; human, in vivo, 24 h) was 0∙99 (0∙57-1∙71), the “Equivalence, 50 mg FCT vs 30 mg DT” value ([3]; in vivo) was “Suggested” and the “Increase of C24 with food compared with fasting” value (shortened to “Increase of C24 with food”) ([4]; high fat meal) was 73%. The “Increase of C24 with food” value ([4]; low fat meal) was 33% and the “Increase of C24 with food” value ([4]; moderate fat meal) was 45%.
